Here are results for 17 molecules from patent US5656660A, “Compositions and methods for treating mast-cell mediated conditions” (Arris Pharmaceutical Corporation, priority 1995, dated 1997).

One assay deals with tryptase. The experiment in a line: In vitro tryptase inhibition assay. The assay is classed as biochemical, human. The following applies: tosyl-Gly-Pro-Lys-p-nitroanilide 0.5 mM; 1 h preincubation at room temperature; pH 8.2. On the procedure:
The compounds to be assayed (approximately 1 mg) were dissolved in 200 μL dimethylsulfoxide (DMSO) and diluted 1:10 into buffer containing 50 millimolar (mM) Tris-HCl (pH 8.2), 100 mM sodium chloride, and 0.05% polyoxyethylenesorbitan monolaurate (Tween-20°, available from Sigma, St. Louis, Mo.). Seven additional threefold dilutions were made from the initial dilution into the same buffer supplemented with 10% DMSO. Aliquots (50 microliters, μL) from each of the eight dilutions in the series were transferred to individual wells in a 96-well U-bottom microtiter plate. […] The tryptase solution was prepared by placing 60 μg/mL of tryptase into solution with 10 mM MES (2-[N-Morpholino]ethane sulfonic acid) containing 2 mM CaCl2, 20% glycerol and 50 μg/mL heparin. The enzyme reaction was initiated with the addition of the synthetic tripeptide substrate, tosyl-Gly-Pro-Lys-p-nitroanilide (available from Sigma, 25 μL; 0.5 mM final concentration). […] Initial velocity measurements calculated from the progress curves by a kinetic analysis program (BatchKi; Petr Kuzmic, University of Wisconsin, Madison, Wis.) were used to determine apparent inhibition constants for each inhibitor.

Assay [1] relates to antigen-challenged sheep. Nature of the assay: Allergic sheep model of asthma, aerosol: Specific Lung Resistance (SRL) after antigen challenge. Format: in vivo. The following applies: aerosol 0.5 h before, 4 h after and 24 h after challenge, n=6; for early response to antigen challenge (SRL): peak immediately post-challenge; for late response to antigen challenge (SRL): peak within 6-8 h. The protocol:
The initial asthmatic response can be evaluated in guinea pigs, and dogs, and particularly, with a basenji-greyhound cross strain which develops nonspecific airway hyperresponsiveness to numerous nonallergenic substances, such as methacholine and citric acid. […] In dual responding animals, the initial asthmatic response (IAR) is followed by a late asthmatic response (LAR) at 6-8 hours post-exposure.
The allergic sheep model (see below) was used to evaluate the potential antiasthmatic effects of the compounds of the present invention.
(§1) The allergic sheep model of asthma was employed for the in vivo evaluation of the compounds of the invention as antiasthmatics. These methods have been published previously (see Abraham et al. (1983) Am. Rev. Respir. Dis. 128:839-844; Allegra et al. (1983) J. Appl. Physiol. 55:726-730; Russi et al. (1985) J. Appl. Physiol. 59:1416-1422; Soler et al. ((1989) J. Appl. Physiol. 67:406-413. Each sheep serves as its own control. Body weights for these animals ranged from 20-50 kilograms.
(§2) In these studies, […] of Compound 2 of the invention was dissolved in buffered saline and the total solution delivered as an aerosol 0.5 hours before, 4 hours after, and 24 hours after antigen challenge (total dose=27; n=6). […] The peak early response was taken as the average of the maximum values occurring immediately post-challenge. Peak late responses were calculated by averaging the maximum response values obtained for each animal within the 6-8 hour time period. This approach is conservative and eliminates the possible reduction in the late response due simply to averaging.

The subject of assay [2] is antigen-challenged sheep. Nature of the assay: Allergic sheep model of asthma: airway hyperresponsiveness (PC400, carbachol). To be noted: aerosol; for PC400, concentration of carbachol that causes a 400% increase in SRL / onset of hyperresponsiveness: 24 h after antigen challenge. The assay is classed as in vivo.
Description: as §1, §2
Twenty-four hours after antigen challenge in both the control and drug trial, the sheep developed airway hyperresponsiveness. Airway hyperresponsiveness is expressed as PC400, the concentration of carbachol that causes a 400% increase in SRL; therefore, a decrease in PC400 indicates hyperresponsiveness. […] The number of breath units fell to 10±4 for those animals in the control group.

The test system of assay [3] is antigen-challenged sheep. The experiment in a line: Allergic sheep model of asthma, oral (intergastric tube): Specific Lung Resistance (SRL). Format: in vivo.
Description: as §1
Three doses of Compound 2 (40 mg in 60 mL water) were administered to sheep through an intergastric tube 1 hr before challenge, 4 hours post-challenge, and 24 hours post-challenge.

Take `N=C(N)Nc1ccc(CNC(=O)CNC(=O)OCc2ccc(COC(=O)NCC(=O)NCc3ccc(NC(=N)N)cc3)cc2)cc1` [Example 2, N,N'-(4-Guanidylbenzylaminecarbonylmethylene)-1,4-benzenedimethanol dicarbamate]: the Ki (usually a dissociation constant, usually derived from enzyme kinetics or from competition with a known ligand) at tryptase is 20 nM. Moreover, in the assay on antigen-challenged sheep [1], the “early response to antigen challenge (SRL)” value is recorded as “statistically significant reduction in the early response” and the “late response to antigen challenge (SRL)” value is listed as “attenuated the late response”. In the assay on antigen-challenged sheep [2], the “PC400, concentration of carbachol that causes a 400% increase in SRL” value was found to be 24±6 breath units; the onset of hyperresponsiveness result is on record as “block the onset of hyperresponsiveness”; the “improvement in airway function in antigen challenged sheep” value was “statistically significant improvement in airway function”. In the assay with antigen-challenged sheep [3] (40 mg in 60 mL water by intergastric tube 1 h before, 4 h and 24 h post-challenge, untreated about 350), the “early phase SRL” value is listed as “about 270”. For the same molecule, the “late phase SRL” value in the assay on antigen-challenged sheep [3] (40 mg in 60 mL water by intergastric tube 1 h before, 4 h and 24 h post-challenge, untreated over 150) was “about 70”. Besides, in the assay with antigen-challenged sheep [3] (40 mg in 60 mL water, intergastric tube, three doses), the “anti-asthmatic properties when delivered orally” value is reported as “significant anti-asthmatic properties”. As to `NCc1ccc(CNC(=O)CCC(=O)NCc2ccc(CNC(=O)CCC(=O)NCc3ccc(CN)cc3)cc2)cc1` [Example 8, N,N'-bis(N-(4-aminomethylbenzyl)-succinamido)-p-xylylenediamide], on tryptase, the Ki came out at 3.45 nM. Moreover, in the assay on antigen-challenged sheep [1], the “early response to antigen challenge (SRL)” value is “statistically significant early and late increases in SRL”; the “late response to antigen challenge (SRL)” value was “statistically significant early and late increases in SRL”. Further, in the assay on antigen-challenged sheep [2], the “PC400, concentration of carbachol that causes a 400% increase in SRL” value turned out to be 15±10 breath units; the onset of hyperresponsiveness entry is recorded as “block the onset of hyperresponsiveness”; the “improvement in airway function in antigen challenged sheep” value is given as “statistically significant improvement in airway function”.

The molecule `N=C(N)Nc1ccc(CNC2=CCCC(=O)N2C(=O)OCc2ccc(COC(=O)N3C(=O)CCC=C3NCc3ccc(NC(=N)N)cc3)cc2)cc1` [Example 40, Bis((R,S)-2-(4-guanidinobenzylamino)-2,3-dehydro-6-piperidone)-1,4-benzenedimethanol dicarbamate] showed a Ki at tryptase of 463 nM.

`NCc1ccc(NC(=O)CNC(=O)OCc2ccc(COC(=O)NCC(=O)Nc3ccc(CN)cc3)cc2)cc1` [Example 42, Bis((4-aminomethylanilido)glycine)-1,4-benzenedimethanol dicarbamate] registered a Ki on tryptase of 783 nM. `N=C(N)NCc1ccc(NC(=O)CNC(=O)OCc2ccc(COC(=O)NCC(=O)Nc3ccc(CNC(=N)N)cc3)cc2)cc1` [Example 43, Bis((4-guanidomethylanilido)glycine)-1,4-benzenedimethanol dicarbamate] showed a Ki at tryptase of 8100 nM. This Ki is about 10-fold higher than that of the molecule before.

At tryptase, `NCc1cccc(CNC(=O)CNC(=O)OCc2ccc(COC(=O)NCC(=O)NCc3cccc(CN)c3)cc2)c1` [Example 44, Bis((3-aminomethylbenzylamido)glycine)-1,4-benzenedimethanol dicarbamate] came in with a Ki of 55 nM.

At tryptase, `NC[C@H]1CC[C@H](CNC(=O)CNC(=O)OCc2ccc(COC(=O)NCC(=O)NC[C@H]3CC[C@H](CN)CC3)cc2)CC1` [Example 45, Bis(trans-1,4-cyclohexyldimethylamine-glycine)-1,4-benzenedimethanol dicarbamate] showed a Ki of 10 nM. Against the preceding molecule, the Ki is about 5.5-fold lower. `N=C(N)Nc1ccc(CNC(=O)CNC(=O)NCc2ccc(CNC(=O)NCC(=O)NCc3ccc(NC(=N)N)cc3)cc2)cc1` [Example 46, 4-(Guanidinobenzylamido)glycine-1,4-xylylene diurea] displayed a Ki at tryptase of 10 nM. Consider `NCc1ccc(CNC(=O)NCC(=O)NCc2ccc(CNC(=O)CNC(=O)NCc3ccc(CN)cc3)cc2)cc1` [Example 47, Bis(N-(4-aminomethylbenzyl)glycylurea)-p-xylylene diamide], for which the Ki at tryptase amounted to 62 nM. On the same count and under the same terms, the result for `N=C(N)Nc1ccc(CNC(=O)NCC(=O)NCc2ccc(CNC(=O)CNC(=O)NCc3ccc(NC(=N)N)cc3)cc2)cc1` [Example 48] reads 700 nM; that for `NCC1CCC(C(=O)NCCCC(=O)NCc2ccc(CNC(=O)CCCNC(=O)C3CCC(CN)CC3)cc2)CC1` (stereo not drawn) [Example 49], 366 nM.

Consider `NCc1ccc(CNC(=O)NCC(=O)NCCc2ccc(NC(=O)CNC(=O)NCc3ccc(CN)cc3)cc2)cc1` [Example 50, Bis(N-(4-aminomethylbenzyl)glycylurea)-1,4-phenethylenediamide], for which, at tryptase, the inhibitory constant (Ki) came out at 43 nM.

The molecule `CN(Cc1ccc(CN(C)C(=O)CNC(=O)NC[C@H]2CC[C@H](CN)CC2)cc1)C(=O)CNC(=O)NC[C@H]1CC[C@H](CN)CC1` [Example 51, N,N'-Bis(methyl)-bis(glycine-trans-1,4-cyclohexylbis(methylamine)urea)-p-xylylene diamide] gave an inhibition constant (Ki) at tryptase of 130 nM. `CN(Cc1ccc(CN(C)C(=O)CNC(=O)NCc2ccc(CN)cc2)cc1)C(=O)CNC(=O)NCc1ccc(CN)cc1` [Example 52, N,N'-Bis(methyl)-bis(glycine-p-xylylenediamine urea)-p-xylylene diamide] displayed a Ki at tryptase of 79 nM. As for `CN(Cc1ccc(CN(C)C(=O)c2ccc(CNC(=O)NC[C@H]3CC[C@H](CN)CC3)cc2)cc1)C(=O)c1ccc(CNC(=O)NC[C@H]2CC[C@H](CN)CC2)cc1` [Example 53], on tryptase, the affinity, expressed as Ki, was 1200 nM.

At tryptase, `CN(Cc1ccc(CN(C)C(=O)CN(C)C(=O)NC[C@H]2CC[C@H](CN)CC2)cc1)C(=O)CN(C)C(=O)NC[C@H]1CC[C@H](CN)CC1` [Example 54, N,N'-Bis(methyl)-bis(sarcosine-trans-1,4-cyclohexylbis(methylamine)urea)-p-xylylene diamide] showed a Ki of 608 nM. Compared with the last molecule, the Ki is about 2-fold lower.

The molecule “Bis((R,S)-2-(2-(4-guanidinobenzylamino)-2,3-dehydro-6-piperidone)-1,4-benzenedimethanol dicarbmate [Example 41]” had an inhibition constant Ki on tryptase of 611 nM.
